System: HIV-1iiib
Experiment: Anti-HIV-1 activity in H9 cells (acute infection, reverse transcriptase assay)
Type: cell-based
Conditions: Human immunodeficiency virus 1, acute HIV-1iiib infection, multiplicity of infection 0.01, 4 and 7 days post infection, 0.2% DMSO, read-out: Therapeutic Concentration for 50% Protection of Cells
Protocol: Using the general methods of Pauwels et al., (J. Virol. Methods, 16: 171-185 (1987) and Mann et al. (AIDS Research and Human Retroviruses, 253-255 (1989)) anti-viral assays of acute HIV-1 infection were performed in the H9 cell line. Cultures were batch infected in 1 ml of RPM1 1640 media/10% fetal calf serum containing 10^7 cells and 10^5 infectious doses of HIV-1iiib for an effective multiplicity of infection of 0.01. After 2 hours of viral absorption, cells were washed once and plated in 96-well microtiter plates at a density of 10^4 cells per well. Test compounds were added to produce the desired concentration of drug and 0.2% DMSO in a final volume of 200 μl. Uninfected parallel cultures were maintained for XTT cytotoxicity assay at 7 days post infection. Cultures were tested for viral replication by reverse transcriptase assay at 4 and 7 days post infection.

EC50 | Compound
13000 nM | COc1ccccc1CCCCc1c(O)c2ccccc2oc1=O [Example 13, 4-Hydroxy-3-4-(2-methoxyphenyl)butyl!-2H-1-benzopyran-2-one]
58000 nM | CCOC(=O)c1cccc(OCCCc2c(O)c3ccccc3oc2=O)c1 [Example 8, Ethyl 3-3-(4-hydroxy-2-oxo-2H-1-benzopyran-3-yl)propoxy!benzoate]

Molecular target: T1, HIV-1 Protease (Human immunodeficiency virus type 1 group M subtype B, UniProt P04585)
T1 construct: purchased Bachem Bioscience Inc
Experiment: HIV Protease Inhibition (hydrolysis of undecapeptide Substrate III, HPLC)
Type: biochemical
Conditions: not given
Protocol: 1.0 mM dithiothreitol (DTT) was prepared fresh daily in 0.1% polyethylene glycol (mw 8000) 80 mM NaOAc, 160 mM NaCl, 1.0 mM EDTA, and brought to pH 4.7 with HCl.
The enzyme is obtained from Bachem Bioscience Inc. The undiluted enzyme is thawed from -80° C. and diluted 50-fold with DTT buffer. The solution is always kept at 0° C. on ice water and used in the experiment within 20 minutes after thawing.
Substrate III from Bachem Bioscience Inc. is the undecapeptide H-His-Lys-Ala-Arg-Val-Leu-p-Nitrophenylalanine-Glu-Ala-Norleucine-Ser-NH2 (>97% purity). A 200 μM stock solution in DTT buffer is prepared and stored on ice. Substrate solution is prepared fresh daily.
10 mM inhibitor (I) in dimethyl sulfoxide (DMSO) is diluted to 200 μM with DTT buffer. From the 200 μM stock solution is made a 10 μM stock solution with 2% DMSO in DTT buffer. The two inhibitor solutions are used to make final (I)=100, 50, 20, 10, 5, 0.5 and 0 μM with 2% DMSO in DTT buffer in each reaction well (total inhibitor volume of 50 μl).
To each reaction well is added 20 μl of substrate (final concentration of 40 μM), 50 μl of inhibitor (at a concentration such that final dilution will produce the test concentration) and 20 μl of DTT buffer. The reaction plate (96 wells) is incubated at 37° C. for at least 5 minutes.
10 μl of the diluted protease is added to the reaction well while the reaction plate is shaking. Once shaken for 10 seconds, the plate is returned to the heating block at 37° C. (Final reaction volume=100 μl)
The reaction is incubated for 5 minutes at 37° C. The reaction is stopped by placing the reaction plate on the shaker and adding 20 μl of 10% trifluoroacetic acid (TFA) and shaking for 10 seconds. The amount of proteolysis is then determined by separation of noncleaved substrate and two cleaved products with reverse-phase HPLC, while measuring absorbance at 220 nm to determine the relative peak areas of the three components. The relative peak areas are used to calculate % conversion to product as a function of inhibitor concentration. The data is plotted as % Control (the ratio of % conversion in the presence and absence of inhibitor×100) versus inhibitor concentration and fit with the equation Y=100/1+(X/IC50)^A, where IC50 is the inhibitor concentration at 50% inhibition and A is the slope of the inhibition curve.

Compound | IC50
O=c1oc2ccccc2c(O)c1C(SC1CCCCC1)c1ccccc1 (stereo not drawn) [Example 42, 3-(Cyclohexylthio)phenylmethyl!-4-hydroxy-2H-1-benzopyran-2-one] | 400 nM
N#Cc1cccc(OCCCc2c(O)c3ccccc3oc2=O)c1 [Example 37, 3-3-(3-Cyanophenoxy)propyl!-4-hydroxy-2H-1-benzopyran-2-one] | 600 nM
O=c1oc2ccccc2c(O)c1CCCOc1cccc(Cl)c1 [Example 7, 3-3-(3-Chlorophenoxy)propyl!-4-hydroxy-2H-1-benzopyran-2-one] | 1300 nM
COc1ccc2c(O)c(CCCCc3ccccc3OC)c(=O)oc2c1 [Example 22, 4-Hydroxy-7-methoxy-3-4-(2-methoxyphenyl)butyl!-2H-1-benzopyran-2-one] | 1400 nM

Same assay, conditions: pH 4.7, 37° C., 40 μM substrate, 2% DMSO, 5 minutes; read-out: 50% Inhibition Concentration

Compound | IC50
COc1ccccc1CCCCc1c(O)c2cccc(C)c2oc1=O [Example 23, 4-Hydroxy-3-4-(2-methoxyphenyl)butyl!-8-methyl-2H-1-benzopyran-2-one] | 5000 nM
COc1ccccc1CCCCc1c(O)c2ccc(O)cc2oc1=O [Example 43, 4,7-Dihydroxy-3-4-(2-methoxyphenyl)butyl!-2H-1-benzopyran-2-one] | 500 nM
COc1ccccc1CCCCc1c(O)c2ccccc2oc1=O [Example 13, 4-Hydroxy-3-4-(2-methoxyphenyl)butyl!-2H-1-benzopyran-2-one] | 1700 nM

Other lines, results leading:

IC50 | Compound
1900 nM | COc1ccc(OCCCc2c(O)c3ccccc3oc2=O)cc1 [Example 4, 4-Hydroxy-3-3-(4-methoxyphenoxy)propyl!-2H-1-bensopyran-2-one]
2800 nM | O=c1oc2ccccc2c(O)c1CCCCc1ccccc1O [Example 14, 4-Hydroxy-3-4-(2-hydroxyphenyl)butyl!-2H-1-benzopyran-2-one]
1200 nM | O=c1oc2ccccc2c(O)c1CCCOc1cccc(CO)c1 [Example 10, 4-Hydroxy-3-3-(3-hydroxymethylphenoxy)propyl!-2H-1-benzopyran-2-one]
5000 nM | O=C(O)c1cccc(OCCCc2c(O)c3ccccc3oc2=O)c1 [Example 9, 3-3-(4-Hydroxy-2-oxo-2H-1-benzopyran-3-yl)propoxy!benzoic acid]

Same assay, conditions: read-out: 50% Inhibition Concentration

IC50 | Compound
500 nM | CCOC(=O)c1cccc(OCCCc2c(O)c3ccccc3oc2=O)c1 [Example 8, Ethyl 3-3-(4-hydroxy-2-oxo-2H-1-benzopyran-3-yl)propoxy!benzoate]

System: HIV
Experiment: not given
Conditions: R. Nagorny et al., AIDS, 7: 129-130 (1993); cited from earlier work

Compound | inhibiting cell-free and cell-mediated HIV infection
CC(=O)CC(c1ccccc1)c1c(O)c2ccccc2oc1=O (stereo not drawn) [Warfarin, 3-(α-acetonylbenzyl)4-hydroxycoumarin] | inhibiting cell-free and cell-mediated HIV infection
